Experiments:
Format in all cases: in vivo
Rhipicephalus sanguineus = Rhipicephalus sanguineus in-vitro contact test, adult brown dog ticks (RHIPSA Cont); settings: 48 h, after 48 hours, read-out: activity (efficacy: 100% means all ticks are dead or moribund); for pest or weed control at 1 µg/cm2, 100 g/ha: application rate 1 μg/cm^2 (=100 g/ha); for pest or weed control at 5 µg/cm2, 500 g/ha: application rate 5 μg/cm^2 (=500 g/ha)
Summary of the method: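 Compound in acetone (9 mg/mL stock, diluted to test concentration) is coated onto inner walls of glass tubes by rotation for 2 h at 30 rpm. Efficacy is read after 48 h: ticks are tapped down and held on a 45-50° C plate for at most 5 min, and immotile or uncoordinated ones that fail to climb away count as dead or moribund.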

[1] = test system: Musca domestica strain WHO—N; experiment: Musca domestica test (MUSCDO surface treatment & contact assay); settings: exposure 30 minutes, 24 hours after contact, read-out: efficacy (mortality); for mortality at 4 mg/m2: surface concentration 4 mg/m^2, glazed tile; for mortality at 20 mg/m2: surface concentration 20 mg/m^2, glazed tile
Summary of the method: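 Compound dissolved in acetone (2 mg/ml) with 2000 ppm rapeseed oil methyl ester and pipetted onto glazed tile; after acetone evaporation, adult flies exposed to dried surface for 30 minutes. Mortality (%) scored 24 hours after contact.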

[2] = test system: Aedes aegypti strain MONHEIM; experiment: Aedes aegypti test (AEDSAE surface treatment & contact assay); settings: exposure 30 minutes, 24 hours after contact, read-out: efficacy (mortality); for mortality at 4 mg/m2: surface concentration 4 mg/m^2, glazed tile; for mortality at 20 mg/m2: surface concentration 20 mg/m^2, glazed tile
Summary of the method: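 Compound dissolved in acetone (2 mg/ml) with 2000 ppm rapeseed oil methyl ester, pipetted onto glazed tile and dried. Adult mosquitoes exposed on the surface for 30 min; percent mortality scored 24 h after contact.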

[3] = test system: Anopheles funestus strain FUMOZ-R; experiment: Anopheles funestus test (ANPHFU surface treatment & contact assay); settings: exposure 30 minutes, 24 hours after contact, read-out: efficacy (mortality); for mortality at 4 mg/m2: surface concentration 4 mg/m^2, glazed tile; for mortality at 20 mg/m2: surface concentration 20 mg/m^2, glazed tile
Summary of the method: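 Adult FUMOZ-R mosquitoes were exposed 30 min to glazed tiles treated with compound in acetone plus 2000 ppm rapeseed oil methyl ester, after solvent evaporation. Percent mortality was scored 24 h after contact.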

Ctenocephalides felis = Ctenocephalides felis oral test (CTECFE Oral); settings: 48 h, read-out: activity (mortality)
Summary of the method: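 About 20 unfed adult cat fleas fed through parafilm on cattle blood containing compound (DMSO concentrate diluted in blood to the desired concentration). Blood held at 37 °C, fleas at room temperature. Mortality (%) scored after 2 days.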

Myzus persicae [4] = experiment: Myzus persicae spray test; settings: in Brassica rapa, foliar, 120 h; for mortality at 500 g/ha: read-out: activity (mortality), application rate 500 g/ha, spray, Chinese cabbage leaf disks, after 5 days; for mortality at 100 g/ha: read-out: activity (mortality), application rate 100 g/ha, spray, Chinese cabbage leaf disks, after 5 days
Summary of the method: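 Compound in acetone/DMF solvent diluted in water with 1000 ppm alkylarylpolyglycol ether emulsifier, sprayed onto Chinese cabbage leaf disks infested with all instars of Myzus persicae. Mortality (%) scored after 5 days.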

Myzus persicae [5] = experiment: Myzus persicae oral test; settings: 120 h, read-out: activity (mortality)
Summary of the method: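 Percent mortality was recorded at day 5, where 0% means no aphids killed. Compound prepared from an acetone concentrate diluted in water and combined with IPL41 medium containing sugar was offered to mixed-stage green peach aphids, which sucked it through a parafilm seal.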

C[C@H](NC(=O)c1ccnc(C(F)(F)F)n1)c1ncnn1-c1ccc(C#N)cn1 [II-8]
90%: mortality at 500 g/ha (Myzus persicae [4])
80 to 100%: mortality at 4 mg/m2 [1] | mortality at 20 mg/m2 [1] | mortality at 4 mg/m2 [2] | mortality at 20 mg/m2 [2] | mortality at 4 mg/m2 [3] | mortality at 20 mg/m2 [3]
100%: pest or weed control at 1 µg/cm2, 100 g/ha (Rhipicephalus sanguineus) | pest or weed control at 5 µg/cm2, 500 g/ha (Rhipicephalus sanguineus) | mortality at 100 ppm (Ctenocephalides felis)

C[C@H](NC(=O)c1cccc(Cl)n1)c1ncnn1-c1ccc(C#N)cn1 [II-9]
80%: pest or weed control at 5 µg/cm2, 500 g/ha (Rhipicephalus sanguineus)
90%: mortality at 100 ppm (Ctenocephalides felis)
80 to 100%: mortality at 20 mg/m2 [1] | mortality at 4 mg/m2 [3] | mortality at 20 mg/m2 [3]

C[C@H](NC(=O)c1cc(Cl)cc(C(F)F)c1)c1ncnn1-c1ccc(C#N)cn1 [II-12]
80 to 100%: mortality at 4 mg/m2 [1] | mortality at 20 mg/m2 [1] | mortality at 4 mg/m2 [2] | mortality at 4 mg/m2 [3] | mortality at 20 mg/m2 [3]
90%: mortality at 100 g/ha (Myzus persicae [4]) | mortality at 500 g/ha (Myzus persicae [4])
100%: pest or weed control at 1 µg/cm2, 100 g/ha (Rhipicephalus sanguineus) | pest or weed control at 5 µg/cm2, 500 g/ha (Rhipicephalus sanguineus) | mortality at 4 ppm (Myzus persicae [5]) | mortality at 100 ppm (Ctenocephalides felis)

C[C@H](NC(=O)c1cc(Br)cc(OC(F)(F)F)c1)c1ncnn1-c1ccc(C#N)cn1 [II-14]
100%: mortality at 4 ppm (Myzus persicae [5]) | mortality at 100 ppm (Ctenocephalides felis)
80%: pest or weed control at 1 µg/cm2, 100 g/ha (Rhipicephalus sanguineus) | pest or weed control at 5 µg/cm2, 500 g/ha (Rhipicephalus sanguineus)
80 to 100%: mortality at 4 mg/m2 [1] | mortality at 20 mg/m2 [1] | mortality at 4 mg/m2 [2] | mortality at 20 mg/m2 [2] | mortality at 4 mg/m2 [3]

C[C@H](NC(=O)c1cc(Cl)cc(OC(F)(F)F)c1)c1ncnn1-c1ncc(Cl)s1 [II-16]
80 to 100%: mortality at 20 mg/m2 [1] | mortality at 20 mg/m2 [2] | mortality at 20 mg/m2 [3]
100%: pest or weed control at 1 µg/cm2, 100 g/ha (Rhipicephalus sanguineus) | pest or weed control at 5 µg/cm2, 500 g/ha (Rhipicephalus sanguineus) | mortality at 100 ppm (Ctenocephalides felis)
90%: mortality at 100 g/ha (Myzus persicae [4])

Cc1nc([C@H](C)NC(=O)c2cc(Cl)cc(Cl)c2)n(-c2cc(C#N)ccn2)n1 [II-17]
80%: pest or weed control at 1 µg/cm2, 100 g/ha (Rhipicephalus sanguineus)
100%: pest or weed control at 5 µg/cm2, 500 g/ha (Rhipicephalus sanguineus) | mortality at 100 ppm (Ctenocephalides felis)
80 to 100%: mortality at 4 mg/m2 [1] | mortality at 20 mg/m2 [1] | mortality at 4 mg/m2 [2] | mortality at 20 mg/m2 [2] | mortality at 4 mg/m2 [3] | mortality at 20 mg/m2 [3]

CC(=O)Nc1ccnc(-n2ncnc2[C@H](C)NC(=O)c2cc(Cl)cc(OC(F)(F)F)c2)c1 [II-22]
100%: mortality at 100 ppm (Ctenocephalides felis)
80 to 100%: mortality at 4 mg/m2 [1] | mortality at 20 mg/m2 [1] | mortality at 4 mg/m2 [2] | mortality at 20 mg/m2 [2] | mortality at 4 mg/m2 [3] | mortality at 20 mg/m2 [3]

CCN(C)C(=O)c1ccc(-n2ncnc2[C@H](C)NC(=O)c2cc(Cl)cc(C(F)(F)F)c2)nc1 [II-27]
100%: pest or weed control at 1 µg/cm2, 100 g/ha (Rhipicephalus sanguineus) | pest or weed control at 5 µg/cm2, 500 g/ha (Rhipicephalus sanguineus) | mortality at 4 ppm (Myzus persicae [5])
80 to 100%: mortality at 4 mg/m2 [2] | mortality at 20 mg/m2 [2] | mortality at 20 mg/m2 [3]
90%: mortality at 500 g/ha (Myzus persicae [4])

CCN(C(=O)c1ccc(-n2ncnc2[C@H](C)NC(=O)c2cc(Cl)cc(C(F)(F)F)c2)nc1)C1CC1 [II-31]
100%: pest or weed control at 1 µg/cm2, 100 g/ha (Rhipicephalus sanguineus) | pest or weed control at 5 µg/cm2, 500 g/ha (Rhipicephalus sanguineus) | mortality at 4 ppm (Myzus persicae [5]) | mortality at 100 g/ha (Myzus persicae [4]) | mortality at 500 g/ha (Myzus persicae [4])
80 to 100%: mortality at 20 mg/m2 [1] | mortality at 20 mg/m2 [2] | mortality at 4 mg/m2 [3] | mortality at 20 mg/m2 [3]

CC(=O)Nc1ccnc(-n2ncnc2[C@H](C)NC(=O)c2cc(Cl)cc(C(F)(F)F)c2)c1 [II-36]
80 to 100%: mortality at 20 mg/m2 [1] | mortality at 4 mg/m2 [2] | mortality at 20 mg/m2 [2] | mortality at 4 mg/m2 [3] | mortality at 20 mg/m2 [3]
90%: mortality at 500 g/ha (Myzus persicae [4])

C[C@H](NC(=O)c1cc(C(F)(F)F)cc(C(F)(F)F)c1)c1ncnn1-c1ncc(Cl)s1 [II-40]
100%: mortality at 500 g/ha (Myzus persicae [4])
80 to 100%: mortality at 20 mg/m2 [1] | mortality at 4 mg/m2 [2] | mortality at 20 mg/m2 [2] | mortality at 20 mg/m2 [3]
80%: pest or weed control at 1 µg/cm2, 100 g/ha (Rhipicephalus sanguineus)

Cc1nc([C@H](C)NC(=O)c2cc(Br)cc(Br)c2)n(-c2ccc(C#N)cn2)n1 [II-52]
100%: pest or weed control at 1 µg/cm2, 100 g/ha (Rhipicephalus sanguineus) | pest or weed control at 5 µg/cm2, 500 g/ha (Rhipicephalus sanguineus) | mortality at 0.8 ppm (Myzus persicae [5]) | mortality at 4 ppm (Myzus persicae [5]) | mortality at 100 ppm (Ctenocephalides felis)
80 to 100%: mortality at 4 mg/m2 [1] | mortality at 20 mg/m2 [1] | mortality at 4 mg/m2 [2] | mortality at 20 mg/m2 [2] | mortality at 4 mg/m2 [3] | mortality at 20 mg/m2 [3]
90%: mortality at 100 g/ha (Myzus persicae [4])

C[C@H](NC(=O)c1cc(Cl)cc(C(F)(F)F)c1)c1ncnn1-c1ccc(N(C)C(=O)C2CC2)cn1 [II-79]
80%: pest or weed control at 1 µg/cm2, 100 g/ha (Rhipicephalus sanguineus) | pest or weed control at 5 µg/cm2, 500 g/ha (Rhipicephalus sanguineus)
100%: mortality at 0.8 ppm (Myzus persicae [5]) | mortality at 100 ppm (Ctenocephalides felis) | mortality at 100 g/ha (Myzus persicae [4])
80 to 100%: mortality at 4 mg/m2 [2] | mortality at 20 mg/m2 [2] | mortality at 4 mg/m2 [3] | mortality at 20 mg/m2 [3]

C[C@H](NC(=O)c1cc(C(F)(F)F)cc(C(F)(F)F)c1)c1ncnn1-c1ccc(C(N)=O)cn1 [II-81]
90%: mortality at 100 g/ha (Myzus persicae [4])
100%: mortality at 0.8 ppm (Myzus persicae [5]) | mortality at 4 ppm (Myzus persicae [5]) | mortality at 100 ppm (Ctenocephalides felis)
80 to 100%: mortality at 20 mg/m2 [1] | mortality at 4 mg/m2 [2] | mortality at 20 mg/m2 [2] | mortality at 4 mg/m2 [3] | mortality at 20 mg/m2 [3]

C[C@H](NC(=O)c1cc(C(F)F)cc(C(F)F)c1)c1ncnn1-c1ccc(C#N)cn1 [II-101]
80 to 100%: mortality at 4 mg/m2 [1] | mortality at 20 mg/m2 [1] | mortality at 4 mg/m2 [2] | mortality at 20 mg/m2 [2] | mortality at 4 mg/m2 [3] | mortality at 20 mg/m2 [3]
100%: pest or weed control at 1 µg/cm2, 100 g/ha (Rhipicephalus sanguineus) | pest or weed control at 5 µg/cm2, 500 g/ha (Rhipicephalus sanguineus) | mortality at 0.8 ppm (Myzus persicae [5]) | mortality at 4 ppm (Myzus persicae [5])
90%: mortality at 100 g/ha (Myzus persicae [4])

C[C@H](NC(=O)c1cc(OC(F)F)cc(C(F)F)c1)c1ncnn1-c1ccc(C#N)cn1 [II-116]
90%: mortality at 100 g/ha (Myzus persicae [4])
80 to 100%: mortality at 4 mg/m2 [1] | mortality at 20 mg/m2 [1] | mortality at 4 mg/m2 [2] | mortality at 20 mg/m2 [2] | mortality at 20 mg/m2 [3]
100%: pest or weed control at 1 µg/cm2, 100 g/ha (Rhipicephalus sanguineus) | pest or weed control at 5 µg/cm2, 500 g/ha (Rhipicephalus sanguineus) | mortality at 0.8 ppm (Myzus persicae [5]) | mortality at 4 ppm (Myzus persicae [5])

Source: patent publication US20220274947A1, “NOVEL HETEROARYL-TRIAZOLE COMPOUNDS AS PESTICIDES” (Bayer Aktiengesellschaft, priority 2019, published 2022)
